Experimental data published in the Kinase Knowledgebase extract (Sharma et al. 2016).

Molecular target: MAPK14;MAPK11;MAPK12;MAPK13 (human) (UniProt Q16539)
Assay: Assessment of Activity of MAPK11, MAPK12, MAPK13 and MAPK14 Kinases

**Q.** CCn1c(=O)cc(Oc2cc(C(=O)NC3CC3)ccc2C)c2cnn(-c3ccc(F)cc3)c21 was tested. Which IC50 did it give?
**A.** Its IC50 is < 0.025 µM.

**Q.** For Cc1ccc(C(=O)NC2CC2)cc1Oc1cc(=O)n(C)c2c1cnn2-c1cccc(F)c1, which IC50 is on record?
**A.** The IC50 was < 0.025 µM.

**Q.** Cc1ccc(C(=O)NC2CC2)cc1Nc1cc(=O)n(C)c2c1cnn2-c1cccc(F)c1 was tested. Which IC50 did it give?
**A.** Its IC50 is < 0.025 µM.

**Q.** Cc1ccc(C(=O)NC2CC2)cc1Oc1cc(=O)n(C)c2c1cnn2-c1cc(F)ccc1F was tested. Which IC50 did it give?
**A.** The IC50 was < 0.025 µM.

**Q.** With Cn1c(=O)cc(Nc2cc(C(=O)NC3CC3)ccc2Cl)c2cnn(-c3c(F)cccc3F)c21 as the molecule, how does the IC50 read?
**A.** Its IC50 is < 0.025 µM.

**Q.** For Cc1ccc(C(=O)NC2CC2)cc1Oc1cc(=O)n(C)c2c1cnn2-c1ccc(F)cc1F, which IC50 is on record?
**A.** Its IC50 is < 0.025 µM.

**Q.** Which IC50 does the source give for Cc1ccc(C(=O)NC2CC2)cc1Nc1cc(=O)n(C)c2c1cnn2-c1cc(F)ccc1F here?
**A.** The IC50 was < 0.025 µM.

**Q.** How did the IC50 turn out when Cc1ccc(C(=O)NC2CC2)cc1Oc1cc(=O)n(C)c2c1cnn2-c1c(F)cccc1F was run?
**A.** The IC50 was < 0.025 µM.

**Q.** How did the IC50 turn out when CONC(=O)c1ccc(C)c(Nc2cc(=O)n(C)c3c2cnn3-c2ccc(F)cc2F)c1 was run?
**A.** Its IC50 is 0.0016 µM.

**Q.** Cn1c(=O)cc(Nc2cc(C(=O)NC3CC3)ccc2Cl)c2cnn(-c3ccc(F)cc3)c21 was tested. Which IC50 did it give?
**A.** Its IC50 is 0.0021 µM.

**Q.** With Cn1c(=O)cc(Nc2cc(C(=O)NC3CC3)ccc2F)c2cnn(-c3ccc(F)cc3F)c21 as the molecule, how does the IC50 read?
**A.** Its IC50 is < 0.025 µM.

**Q.** For Cn1c(=O)cc(Nc2cc(C(=O)NC3CC3)ccc2Cl)c2cnn(-c3cc(F)ccc3F)c21, which IC50 is on record?
**A.** Its IC50 is < 0.025 µM.

**Q.** How did the IC50 turn out when CCn1c(=O)cc(Nc2cc(C(=O)NC3CC3)ccc2Cl)c2cnn(-c3ccc(F)cc3)c21 was run?
**A.** The IC50 was 0.0017 µM.

**Q.** Cc1ccc(C(N)=O)cc1Nc1cc(=O)n(C)c2c1cnn2-c1ccc(F)cc1F was tested. Which IC50 did it give?
**A.** The IC50 was < 0.025 µM.

**Q.** How did the IC50 turn out when CCn1c(=O)cc(Nc2cc(C(=O)NC3CC3)ccc2Cl)c2cnn(-c3ccc(F)cc3F)c21 was run?
**A.** Its IC50 is 0.0012 µM.

**Q.** For Cc1ccc(C(=O)NC2CC2)cc1Nc1cc(=O)n(C)c2c1cnn2-c1c(F)cccc1F, which IC50 is on record?
**A.** Its IC50 is < 0.025 µM.

**Q.** How did the IC50 turn out when Cc1ccc(C(N)=O)cc1Nc1cc(=O)n(C)c2c1cnn2-c1cc(F)ccc1F was run?
**A.** Its IC50 is < 0.025 µM.

**Q.** Which IC50 does the source give for CCn1c(=O)cc(Nc2cc(C(=O)NC3CC3)ccc2C)c2cnn(-c3ccc(F)cc3)c21 here?
**A.** The IC50 was < 0.025 µM.
